From patent US7468375B2 (Pfizer Inc., priority 2004, dated 2008) come the findings set out here.

SMILES strings stand for the structures. Where two headings read alike, the source gives them in different places.

Assay [1] has as its target T1, Full-length wild type HIV-1 integrase (SF1) (Human immunodeficiency virus type 1 group M subtype B, UniProt P04585).
T1 construct: made in house; host or cells: E. coli BL21 (DE3)
Put plainly: Integrase strand-transfer scintillation proximity assay. In kind it is biochemical. Particulars: strand transfer, 50 min at 37° C., 246 nM integrase, 50 nM host DNA; read-out: IC50. The source says:
Integrase Strand-Transfer Scintillation Proximity Assay Oligonucleotides
Oligonucleotide #1-5′-(biotin)[…]-3′ (SEQ ID NO: 1) and oligonucleotide #2-5′-[…]-3′ (SEQ ID NO: 2), were synthesized by TriLink BioTechnologies, Inc. (San Diego, Calif.). The annealed product represents preprocessed viral ds-DNA derived from the LTR U5 sequence of the viral genome. A ds-DNA control to test for non-specific interactions was made using a 3′ di-deoxy derivative of oligonucleotide #1 annealed to oligonucleotide #2. The CA overhang at the 5′ end of the non-biotinylated strand of the ds-DNA was created artificially by using a complimentary DNA oligonucleotide shortened by 2 base pairs. This configuration eliminates the requisite 3′ processing step of the integrase enzyme prior to the strand-transfer mechanism. Host ds-DNA was prepared as an unlabeled and [^3H]-thymidine labeled product from annealed oligonucleotide #3-5-[…]-3′ (SEQ ID NO: 3), and oligonucleotide #4-5′-[…]-3′ (SEQ ID NO: 4), both synthesized by TriLink BioTechnologies, Inc. (San Diego, Calif.). The annealed product had overhanging 3′ ends of poly(dA). Host DNA was custom radiolabeled by PerkinElmer Life Sciences Inc. (Boston, Mass.) using an enzymatic method with a 12/1 ratio of [methyl-3H]dTTP/cold ds-DNA to yield 5′-blunt end ds-DNA with a specific activity of >900 Ci/mmol. The radiolabeled product was purified using a NENSORB cartridge and stored in stabilized aqueous solution (PerkinElmer). The final radiolabeled product had six [^3H]-thymidine nucleotides at both 5′ ends of the host ds-DNA. Reagents: Streptavidin-coated polyvinyltoluene (PVT) SPA beads were purchased from Amersham Biosciences (Piscataway, N.J.). Cesium chloride was purchased from Shelton Scientific, Inc. (Shelton, Conn.). White, polystyrene, flat-bottom, non-binding surface, 96-well plates were purchased from Corning. All other buffer components were purchased from Sigma (St. Louis, Mo.) unless otherwise indicated.
Enzyme Construction: Full-length wild type HIV-1 integrase (SF1) sequence (amino acids 1-288) was constructed in a pET24a vector (Novagen, Madison, Wis.). The construct was confirmed through DNA sequencing. Enzyme Purification: Full length wild-type HIV Integrase was expressed in E. coli BL21 (DE3) cells and induced with 1 mM isopropyl-1 thio-β-D-galactopyranoside (IPTG) when cells reached an optical density between 0.8-1.0 at 600 nm. Cells were lysed by microfluidation in 50 mM HEPES pH 7.0, 75 mM NaCl, 5 mM DTT, 1 mM 4-(2-Aminoethyl)benzenesulfonylfluoride HCl (AEBSF). Lysate was then centrifuged 20 minutes at 11 k rpm in GSA rotor in Sorvall RC-5B at 4° C. Supernant was discarded and pellet resuspended in 50 mM HEPES pH 7.0, 750 mM NaCl, 5 mM DTT, 1 mM AEBSF and homogenized in a 40 mL Dounce homogenizer for 20 minutes on ice. Homogenate was then centrifuged 20 minutes at 11 k rpm in SS34 rotor in Sorvall RC-5B at 4° C. Supernant was discarded and pellet resuspended in 50 mM HEPES pH 7.0, 750 mM NaCl, 25 mM CHAPS, 5 mM DTT, 1 mM AEBSF. Preparation was then centrifuged 20 minutes at 11 k rpm in SS34 rotor in Sorvall RC-5B at 4° C. Supernant was then diluted 1:1 with 50 mM HEPES pH 7.0, 25 mM CHAPS, 1 mM DTT, 1 mM AEBSF and loaded onto a Q-Sepharose column pre-equilibrated with 50 mM HEPES, pH 7.0, 375 mM NaCl, 25 mM CHAPS, 1 mM DTT, 1 mM AEBSF. The flow through peak was collected and NaCl diluted to 0.1 M with 50 mM HEPES pH 7.0, 25 mM CHAPS, 1 mM DTT, 0.5 mM AEBSF and loaded onto a SP-Sepharose column pre-equilibrated with 50 mM HEPES pH 7.0, 100 mM NaCl, 25 mM CHAPS, 1 mM DTT, 0.5 mM AEBSF. After washing the column with the equilibration buffer, a 100 to 400 mM NaCl gradient was run. The eluted integrase was concentrated and run on a S-300 gel diffusion column using 50 mM HEPES pH 7.0, 500 mM NaCl, 25 mM CHAPS, 1 mM DTT, 0.5 mM AEBSF. The peak from this column was concentrated to 0.76 mg/mL and stored at −70° C. and later used for strand transfer assays. […]
A general note: Scintillation proximity formats need no separation of bound from free tracer.

Assay [2] has as its system RF strain of HIV-1 in CEM-SS cells. Put plainly: HIV-1 cell protection assay (XTT dye reduction). It is filed as cell-based. The method, then: HIV-1 Cell Protection Assay
The antiviral activities of potential modulator compounds (test compounds) were determined in HIV-1 cell protection assays using the RF strain of HIV-1, CEM-SS cells, and the XTT dye reduction method (Weislow, O. S. et al., J. Natl. Cancer Inst. 81: 577-586 (1989)). Subject cells were infected with HIV-1 RF virus at an moi of 0.025 to 0.819 or mock infected with medium only and added at 2×10^4 cells per well into 96 well plates containing half-log dilutions of test compounds. Six days later, 50 μl of XTT solution (1 mg/ml XTT tetrazolium and […] phenazine methosulfate) were added to the wells and the plates were reincubated for four hours. Viability, as determined by the amount of XTT formazan produced, was quantified spectrophotometrically by absorbance at 450 nm. Data from CPE assays were expressed as the percent of formazan produced in compound-treated cells compared to formazan produced in wells of uninfected, compound-free cells. […] The therapeutic index was calculated by dividing the cytotoxicity (CC50) by the antiviral activity (EC50).

[3] abbreviates: Human immunodeficiency virus 1, CEM-SS, 144 h, HIV-1 RF, CEM-SS cells, XTT dye reduction, six days, read-out: EC50.

Usually IC50 stands for the midpoint of a concentration-inhibition curve. For orientation: EC50 means the concentration that produces a half-maximal response. On to `O=C(NO)c1cc2c(CN3CCCCC3)cn(Cc3ccc(F)cc3F)c2cn1` [Example 6, 1-(2,4-difluorobenzyl)-N-hydroxy-3-(piperidin-1-ylmethyl)-1H-pyrrolo[2,3-c]pyridine-5-carboxamide], for which, in assay [1], the IC50 came out at 108 nM. In assay [2] (setting [3]), the EC50 is 5.2 nM.
`O=C(NO)c1cc2c(CNCCOCCO)cn(Cc3ccc(F)cc3F)c2cn1` [Example 58, 1-(2,4-Difluorobenzyl)-N-hydroxy-3-({[2-(2-hydroxyethoxy)ethyl]amino}methyl)-1H-pyrrolo[2,3-c]pyridine-5-carboxamide]: the IC50 in assay [1] was 585 nM. Besides, in assay [2] (setting [3]), the concentration for a half-maximal effect (EC50) worked out at 100 nM.
The corresponding values for `CC(C)N(O)C(=O)c1cc2ccn(Cc3ccc(F)cc3)c2cn1` [Example 27, 1-(4-Fluorobenzyl)-N-hydroxy-N-isopropyl-1H-pyrrolo[2,3-c]pyridine-5-carboxamide] are 8000 nM and 3500 nM.
As for `O=C(NO)c1cc2c(CNCCN3CCOCC3)cn(Cc3ccc(F)cc3F)c2cn1` [Example 54], the IC50 in assay [1] was determined as 746 nM. Also, the EC50 in assay [2] (setting [3]) turned out to be 38 nM.
For `C[C@@H](OCc1cn(Cc2ccc(F)cc2)c2cnc(C(=O)N(C)O)cc12)c1ccccc1` [Example 119, 1-(4-Fluorobenzyl)-N-hydroxy-N-methyl-3-{[(1R)-1-phenylethoxy]methyl}-1H-pyrrolo[2,3-c]pyridine-5-carboxamide], the IC50 in assay [1] came out at 39 nM. Besides, the EC50 in assay [2] (setting [3]) was 505 nM.
For `O=C(NO)c1cc2c(CNCCc3c[nH]c4ccccc34)cn(Cc3ccc(F)cc3F)c2cn1` [Example 67, 1-(2,4-Difluorobenzyl)-N-hydroxy-3-({[2-(1H-indol-3-yl)ethyl]amino}methyl)-1H-pyrrolo[2,3-c]pyridine-5-carboxamide], in that order: 283 nM and 15 nM.
The corresponding values for `CCC(CC)NCc1cn(Cc2ccc(F)cc2F)c2cnc(C(=O)NO)cc12` [Example 82, 1-(2,4-Difluorobenzyl)-3-{[(1-ethylpropyl)amino]methyl}-N-hydroxy-1H-pyrrolo[2,3-c]pyridine-5-carboxamide] are 634 nM and 23 nM.
The corresponding values for `O=C(NO)c1cc2c(cn1)c(Cc1ccc(F)cc1)cn2Cc1ccc(F)cc1` [Example 32, 1,3-Bis(4-fluorobenzyl)-N-hydroxy-1H-pyrrolo[3,2-c]pyridine-6-carboxamide] are 215 nM and 25 nM.
In the case of `O=C(NO)c1cc2ncn(Cc3ccc(F)cc3)c2cn1` [Example 21, 3-(4-Fluorobenzyl)-N-hydroxy-3H-imidazo[4,5-c]pyridine-6-carboxamide], the IC50 in assay [1] is 517 nM. Further, in assay [2] (setting [3]), the EC50 is 84 nM.
For `CN1CCCC1CCNCc1cn(Cc2ccc(F)cc2F)c2cnc(C(=O)NO)cc12` (centres unmarked) [Example 51, 1-(2,4-Difluorobenzyl)-N-hydroxy-3-({[2-(1-methylpyrrolidin-2-yl)ethyl]amino}methyl)-1H-pyrrolo[2,3-c]pyridine-5-carboxamide], in that order: 752 nM and 230 nM.
For `O=C(NO)c1cc2c(CNCc3ccc(OC(F)F)cc3)cn(Cc3ccc(F)cc3F)c2cn1` [Example 94, 1-(2,4-Difluorobenzyl)-3-({[4-(difluoromethoxy)benzyl]amino}methyl)-N-hydroxy-1H-pyrrolo[2,3-c]pyridine-5-carboxamide], in that order: 288 nM and 26 nM.
In the case of `O=C1CN(Cc2cn(Cc3ccc(F)cc3)c3cnc(C(=O)NOc4ccccc4)cc23)CCN1` [Example 104, 1-(4-Fluorobenzyl)-3-[(3-oxopiperazin-1-yl)methyl]-N-phenoxy-1H-pyrrolo[2,3-c]pyridine-5-carboxamide], in assay [1], the IC50 is 182 nM. Also, the EC50 in assay [2] (setting [3]) came out at 4.45 nM.
In the case of `O=C(NO)c1cc2c(CNCCO)cn(Cc3ccc(F)cc3F)c2cn1` [Example 80, 1-(2,4-Difluorobenzyl)-N-hydroxy-3-{[(2-hydroxyethyl)amino]methyl}-1H-pyrrolo[2,3-c]pyridine-5-carboxamide], in assay [1], the IC50 is 530 nM. In addition, in assay [2] (HIV-1 RF, CEM-SS cells, XTT dye reduction, six days, read-out: EC50), the EC50 was 10 nM.
With `CN(O)C(=O)c1cc2c(CN3CCNC(=O)C3)cn(Cc3ccc(F)cc3)c2cn1` [Example 114, 1-(4-fluorobenzyl)-N-hydroxy-N-methyl-3-[(3-oxopiperazin-1-yl)methyl]-1H-pyrrolo[2,3-c] pyridine-5-carboxamide], the IC50 in assay [1] was determined as 150 nM. In assay [2] (Human immunodeficiency virus 1, CEM-SS, 144 h), this molecule displayed an EC50 of 351 nM.
As to `CN(CCS(C)(=O)=O)Cc1cn(Cc2ccc(F)cc2F)c2cnc(C(=O)NO)cc12` [Example 95, 1-(2,4-difluorobenzyl)-N-hydroxy-3-({methyl[2-(methylsulfonyl)ethyl]amino}methyl)-1H-pyrrolo[2,3-c]pyridine-5-carboxamide], in assay [1], the half-maximal inhibitory concentration (IC50) was 127 nM. For the same molecule, the EC50 in assay [2] (setting [3]) was 17 nM.
For `COCCOCc1cn(Cc2ccc(F)cc2)c2cnc(C(=O)NOC)cc12` [Example 109, 1-(4-Fluorobenzyl)-N-methoxy-3-[(2-methoxyethoxy)methyl]-1H-pyrrolo[2,3-c]pyridine-5-carboxamide], in that order: 63 nM and 313 nM.
As for `O=C(NO)c1cc2c(CN[C@@H]3C[C@H]4CC[C@@H]3C4)cn(Cc3ccc(F)cc3F)c2cn1` [Example 74, 3-{[(1R,2R,4S)-Bicyclo[2.2.1]hept-2-ylamino]methyl}-1-(2,4-difluorobenzyl)-N-hydroxy-1H-pyrrolo[2,3-c]pyridine-5-carboxamide], the half-maximal inhibitory concentration (IC50) in assay [1] was determined as 357 nM. Moreover, in assay [2] (setting [3]), the EC50 worked out at 32 nM.
The corresponding values for `CCCN(O)C(=O)c1cc2ccn(Cc3ccc(F)cc3)c2cn1` [Example 28, 1-(4-Fluorobenzyl)-N-hydroxy-N-propyl-1H-pyrrolo[2,3-c]pyridine-5-carboxamide] are 628 nM and 350 nM.
On to `CONC(=O)c1ncc2c(ccn2Cc2ccc(F)cc2)c1O` [Example 43, 1-(4-Fluorobenzyl)-4-hydroxy-N-methoxy-1H-pyrrolo[2,3-c]pyridine-5-carboxamide], for which the IC50 in assay [1] worked out at 371 nM. For the same molecule, the EC50 in assay [2] (setting [3]) amounted to 420 nM.
